≈ marks a conversion by molar mass, not a printed value.
Assays:
[1] = tested on: IL-6; test: IL-6 expression in conditioned media of LPS stimulated dermal fibroblasts by ELISA; type: cell-based; conditions: Fibroblast, 24 h, read-out: IC50, suppression of IL-6 expression
Description: Dermal fibroblasts were treated with LPS+S1 or S2 at 5-40 μg/ml for 24 h. […] Ibuprofen suppressed IL-6 expression with IC50 of ˜40 μg/ml.

[2] = tested on: MCP-1; test: MCP-1 expression in conditioned media of LPS stimulated dermal fibroblasts by ELISA; type: cell-based; conditions: at 40-160 μg/ml
[3] = tested on: dermal fibroblasts; conditions: 24 h

**Q.** What does the source list for `CC(C)Cc1ccc(C(C)C(=O)O)cc1` (stereo not drawn) [Ibuprofen]?
**A.** IC50 [1]: ~40 µg/mL (≈ 194 µM); suppression of MCP-1 expression [2]: ~10 fold; concentration with cytotoxic effect (no adverse effects / no cytotoxicity up to the value) [3]: > 160 µg/mL

— patent US20140154342A1, “SANDALWOOD OIL AND ITS USES RELATED TO SKIN DISORDERS” (SANTALIS PHARMACEUTICALS INC., priority 2011, published 2014)
